In patent publication US20250145589A1, “PYRIDINE DERIVATIVE AND USE THEREOF” (SICHUAN HUIYU PHARMACEUTICAL CO., LTD., priority 2021, published 2025) one finds IC50 data, which are given here for ten compounds.

Like-named read-outs stand apart in the source and are kept apart here.

One test deals with PI3Kα (Homo sapiens (Human), UniProt P42336). Briefly: Inhibition of PI3Kα efficacy assay (ADP-Glo kinase assay). In kind it is biochemical. The settings on record: read-out: PI3Kα inhibitory activity (IC50). Summed up:
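ADP-Glo luminescent detection of ADP from PI3Kα acting on PI substrate with ATP, 60 min at RT; compounds in 8-point five-fold serial dilution from 2 mM DMSO stock. IC50 from four-parameter variable-slope fit.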
Background: In ADP-Glo the light output rises with the ADP produced.

The target of the next test is PI3Kδ (Homo sapiens (Human), UniProt O00329). Briefly: Inhibition of PI3Kδ efficacy assay (ADP-Glo kinase assay). As to conditions: read-out: PI3Kδ inhibitory activity (IC50). It is filed as biochemical. Put shortly: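 Luminescent ADP-Glo readout of PI3Kδ: after a 60 min RT reaction with PI/ATP substrate, ATP depletion (40 min) and ADP detection (40 min) steps followed. Compounds tested as eight five-fold serial dilutions; inhibition rates fitted to log(inhibitor) vs. response, variable slope, for IC50.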
PI3Kδ, sequence (O00329 whole entry): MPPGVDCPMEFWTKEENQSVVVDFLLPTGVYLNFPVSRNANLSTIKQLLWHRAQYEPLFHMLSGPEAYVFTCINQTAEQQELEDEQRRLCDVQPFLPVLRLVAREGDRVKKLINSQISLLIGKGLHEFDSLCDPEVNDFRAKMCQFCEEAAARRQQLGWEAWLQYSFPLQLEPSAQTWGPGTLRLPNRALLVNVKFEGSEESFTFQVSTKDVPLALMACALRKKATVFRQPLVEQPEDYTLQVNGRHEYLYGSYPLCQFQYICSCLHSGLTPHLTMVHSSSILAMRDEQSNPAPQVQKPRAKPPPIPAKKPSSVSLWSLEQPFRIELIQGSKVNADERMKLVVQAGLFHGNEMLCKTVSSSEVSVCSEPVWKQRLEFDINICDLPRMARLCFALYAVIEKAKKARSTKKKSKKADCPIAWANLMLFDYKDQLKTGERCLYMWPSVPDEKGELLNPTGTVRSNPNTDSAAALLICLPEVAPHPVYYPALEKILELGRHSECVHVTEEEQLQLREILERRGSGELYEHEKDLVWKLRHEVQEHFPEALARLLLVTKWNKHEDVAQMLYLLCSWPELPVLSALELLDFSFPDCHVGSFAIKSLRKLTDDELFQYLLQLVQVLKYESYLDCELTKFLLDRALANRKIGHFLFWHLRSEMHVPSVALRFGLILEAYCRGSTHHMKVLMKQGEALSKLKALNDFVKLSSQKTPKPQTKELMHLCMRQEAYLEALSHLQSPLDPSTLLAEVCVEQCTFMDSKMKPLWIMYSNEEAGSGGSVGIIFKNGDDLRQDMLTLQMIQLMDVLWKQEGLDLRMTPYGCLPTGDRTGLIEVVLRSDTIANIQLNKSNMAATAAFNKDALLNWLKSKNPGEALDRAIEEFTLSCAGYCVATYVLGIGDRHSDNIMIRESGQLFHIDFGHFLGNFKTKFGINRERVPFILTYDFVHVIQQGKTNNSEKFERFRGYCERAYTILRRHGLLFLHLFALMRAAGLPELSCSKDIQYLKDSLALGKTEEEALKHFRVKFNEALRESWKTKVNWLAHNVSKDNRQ
PI3Kδ, sequence (P27986 whole entry partner): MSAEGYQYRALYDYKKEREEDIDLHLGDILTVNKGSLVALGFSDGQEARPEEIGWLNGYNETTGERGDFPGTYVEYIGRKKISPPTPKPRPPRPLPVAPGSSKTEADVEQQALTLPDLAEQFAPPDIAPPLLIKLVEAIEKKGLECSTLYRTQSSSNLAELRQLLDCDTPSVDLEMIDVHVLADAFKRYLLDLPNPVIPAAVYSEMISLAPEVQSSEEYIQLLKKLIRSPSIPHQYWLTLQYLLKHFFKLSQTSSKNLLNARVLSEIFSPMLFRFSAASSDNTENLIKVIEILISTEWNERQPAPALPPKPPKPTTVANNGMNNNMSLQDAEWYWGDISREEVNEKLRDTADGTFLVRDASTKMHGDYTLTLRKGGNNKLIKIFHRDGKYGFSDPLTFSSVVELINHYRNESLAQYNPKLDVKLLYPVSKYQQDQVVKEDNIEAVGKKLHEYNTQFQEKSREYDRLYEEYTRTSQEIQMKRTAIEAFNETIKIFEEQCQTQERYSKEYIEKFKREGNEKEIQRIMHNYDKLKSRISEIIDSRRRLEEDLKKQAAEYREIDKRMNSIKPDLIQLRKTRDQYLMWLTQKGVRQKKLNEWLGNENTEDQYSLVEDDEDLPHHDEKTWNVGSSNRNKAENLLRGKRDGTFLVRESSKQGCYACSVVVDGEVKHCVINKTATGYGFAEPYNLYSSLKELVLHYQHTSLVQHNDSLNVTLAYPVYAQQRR

For the next test, the target named is KRAS^G12C-SOS1 (Homo sapiens (Human), UniProt P01116, G12C). Nature of the test: HTRF KRAS G12C/SOS1 binding assay. As to conditions: Table 5. How it is done:
Initially, a 2 mM stock solution of the test compound (dissolved in DMSO) was serially diluted in five-fold concentrations using DMSO to obtain eight working solutions 1 (200×). Subsequently, each of the eight working solutions 1 was further diluted in a 20-fold gradient by adding 5 μL into 95 μL of Diluent buffer, mixed completely with vortex mixer, resulting in eight working solutions 2 (10×). […] Subsequently, 5 μL of Anti-tag 1-Tb^3+ stock solution and 5 μL of Anti-tag2-XL665 were added to each well, mixed, and incubated at 4° C. for 3 hours. Remove the plate and read on an HTRF® compatible reader, with the excitation light wavelength set at 337 nm and readings recorded at 620 nm and 665 nm. The data results were presented as the ratio of the 665 nm signal value to the 620 nm signal value for each well, calculated as follows: […]. The inhibition rate was calculated using the following formula: […]
Data were analyzed using GraphPad Prism with log (inhibitor) vs. response-Variable Slope (four parameters) fitting calculations for IC50 values.
In general terms: TR-FRET usually uses a lanthanide donor and a delayed reading to cut background.

Test [1] relates to MIA PaCa-2 cells (KRAS G12C mutant). Briefly: MIA PaCa-2 cell anti-proliferation (CellTiter-Glo). It is filed as cell-based. The settings on record: Homo sapiens, 72 h; MIA Paca-2 cells, 3 days, Table 7; read-out: MIA PaCa-2 (IC50). Put shortly:
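Viable-cell luminescence (CellTiter-Glo, ≥30 min at 25 °C) measured after a 3-day, 37 °C exposure to compounds at 9 points, 4-fold spaced, in DMEM containing 10% FBS plus 2.5% horse serum. IC50 derived versus no-inhibitor wells.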
On the technique in general: In ATP-based viability assays light output follows the ATP content of the culture.

Test [2] concerns NCI-H358 cells (KRAS G12C mutant). Briefly: NCI-H358 cell proliferation inhibition (CellTiter-Glo). It is filed as cell-based. The settings on record: Homo sapiens, NCI-H358, 72 h; H358 cells (G12C mutation), 3 days, Table 6; read-out: NCI-H358 (IC50).
The test system of test [3] is NCI-H358-AMGR drug-resistant cell line. Nature of the test: NCI-H358-AMGR drug-resistant cell proliferation inhibitory activity test. It is filed as cell-based. As to conditions: 72 h; NCI-H358-AMGR drug-resistant cells, 3 days incubation, CellTiter-Glo. Here is the method: Test Example 6t Generation of NCI-H358-AMGR Drug-Resistant Cell Line
NCI-H358 cells were seeded and cultured at 50 to 70% confluence in six-well plate with RPMI-640 (10% FBS) medium at 37° C. with 5%4 CO2. AMG510 was added for induction at three starting concentrations of 1 nM, 10 nM and 50 nM, and the medium containing the same concentration of AMG510 was replaced every 3 days. Cells were passaged once they reached confluence. After every, two passages at a given concentration of drug, the concentration was increased in a 3-old increment until final concentrations of 1 μM for AMG510 was achieved.
(§1) NCI-H358-AMGR cells in logarithmic growth phase were collected and seeded into a clear-bottom 96-well plate at a density of 4×10^3 cells per well in 80 μL of medium, and then incubated overnight at 37° C. with 5% CO2. The compounds were serially diluted 5-fold in DMSO to obtain 8 concentrations, and then further diluted with RPMI-640) (10% FBS) cell culture medium to obtain the working solutions (5×), 20 μL of each working solution was added to the cell culture supernatant in each well, and the plate was further incubated for 3 days at 37° C. with 5% CO2. The plate was then equilibrated with CellTiter-Glo® reagent at room temperature (25° C.) for 10-30 minutes. After aspirating 50 μL of the medium, 50 μL of CellTiter-Glo®, reagent was added. The cells were thoroughly mixed with the CellTiter-Glo®, reagent using a microplate shaker for 2 minutes, and then incubated at room temperature for 10 minutes. The %-well plate was placed in a multi-mode microplate reader to record the luminescence values (RLU).
(§2) The inhibitory rate was calculated using the following formula: […]
Data were analyzed using GraphPad Prism for IC50 values (Note: The negative control refers to the group without inhibitor).

The test system of test [4] is MIA PaCa-2-AMGR drug-resistant cell line. Briefly: MIA PaCa-2-AMGR drug-resistant cell proliferation inhibitory activity test. As to conditions: 72 h, MIA PaCa-2-AMGR drug-resistant cells, 3 days incubation, CellTiter-Glo. In kind it is cell-based. How it is done:
Test Example 7: Generation of MIA PaCa-2-AMGR drug-resistant cell line
MIA PaCa-2 cells were seeded and cultured at 50 to 70% confluence in six-well plate with DMEM (10% FBS+2.5% horse serum) medium at 37° C. with 5% CO2. AMG510 was added for induction at three starting concentrations of 1 nM, 10 nM and 50 nM, and the medium containing the same concentration of AMG510 was replaced every 3 days. Cells were passaged once they reached confluence. After every two passages at a given concentration of drug, the concentration was increased in a 3-fold increment until final concentrations of 1 μM for AMG510 was achieved.
as §1, with “MIA PaCa-2-AMGR” for “NCI-H358-AMGR”, “DMEM” for “RPMI-640)”, “FBS+2.5% horse serum)” for “FBS)”, “CellTiter-Glo®” for “CellTiter-Glo®,”, “96-well” for “%-well”
as §2
Data were analyzed using GraphPad Prism for IC50 values (Note: The negative control refers to the group without inhibitor) The data were presented m Table 9

PI3Kα, sequence (P42336 whole entry): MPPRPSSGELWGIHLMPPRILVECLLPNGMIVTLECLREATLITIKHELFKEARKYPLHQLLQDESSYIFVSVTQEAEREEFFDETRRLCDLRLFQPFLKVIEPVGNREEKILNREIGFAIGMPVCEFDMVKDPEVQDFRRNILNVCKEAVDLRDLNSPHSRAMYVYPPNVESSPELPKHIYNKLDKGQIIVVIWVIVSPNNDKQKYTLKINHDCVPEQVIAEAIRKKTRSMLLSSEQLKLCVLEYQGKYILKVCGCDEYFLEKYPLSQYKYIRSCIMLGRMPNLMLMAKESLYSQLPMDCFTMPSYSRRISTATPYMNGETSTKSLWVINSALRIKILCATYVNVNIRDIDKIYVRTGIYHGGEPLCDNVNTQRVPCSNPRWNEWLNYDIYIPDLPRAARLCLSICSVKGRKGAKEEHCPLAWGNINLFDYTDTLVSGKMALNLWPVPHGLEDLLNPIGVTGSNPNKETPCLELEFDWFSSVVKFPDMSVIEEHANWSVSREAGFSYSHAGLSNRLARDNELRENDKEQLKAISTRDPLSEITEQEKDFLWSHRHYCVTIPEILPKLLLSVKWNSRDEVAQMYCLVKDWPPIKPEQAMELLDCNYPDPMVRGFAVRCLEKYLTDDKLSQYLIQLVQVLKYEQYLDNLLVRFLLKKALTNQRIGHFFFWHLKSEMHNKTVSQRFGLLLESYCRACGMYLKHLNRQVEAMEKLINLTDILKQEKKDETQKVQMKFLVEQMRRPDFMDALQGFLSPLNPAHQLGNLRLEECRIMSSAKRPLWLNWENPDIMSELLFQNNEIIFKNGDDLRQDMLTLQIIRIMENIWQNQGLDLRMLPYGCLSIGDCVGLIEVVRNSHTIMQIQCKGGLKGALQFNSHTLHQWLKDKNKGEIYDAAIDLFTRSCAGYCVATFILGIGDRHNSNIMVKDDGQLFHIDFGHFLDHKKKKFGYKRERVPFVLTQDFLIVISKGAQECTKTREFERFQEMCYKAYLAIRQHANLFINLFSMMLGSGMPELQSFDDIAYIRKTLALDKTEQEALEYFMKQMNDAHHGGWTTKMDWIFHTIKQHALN
PI3Kα, sequence (P27986 whole entry partner): as the sequence (P27986 whole entry partner) above
KRAS^G12C-SOS1, sequence (P01116-2 other isoform, or with tags, fused parts or gaps G12C): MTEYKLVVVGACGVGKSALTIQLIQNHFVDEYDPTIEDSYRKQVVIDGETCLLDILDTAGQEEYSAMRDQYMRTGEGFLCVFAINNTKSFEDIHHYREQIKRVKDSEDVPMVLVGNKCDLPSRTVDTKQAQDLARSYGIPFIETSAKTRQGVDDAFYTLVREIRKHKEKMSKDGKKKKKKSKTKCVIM

As usually defined, the IC50 is the midpoint of a concentration-inhibition curve. Regarding `CC(=O)/C=C/C(=O)N1CCN(c2ncnc3ccc(-c4cnc(Cl)c(NS(=O)(=O)c5ccc(F)cc5F)c4)cc23)CC1` [Example 34, (E)-N-(2-chloro-5-(4-(4-(4-oxopent-2-enoyl)piperazin-1-yl)quinazolin-6-yl)pyridin-3-yl)-2,4-difluorobenzenesulfonamide], the IC50 worked out at 1.4 nM on PI3Kα (Table 1), 20.8 nM at PI3Kδ (Table 1), 521 nM at KRAS^G12C-SOS1 and 254 nM in test [1].

`CC(=O)/C=C/C(=O)N1CCN(c2ncnc3ccc(-c4cnc(Cl)c(NS(=O)(=O)c5c(F)cccc5F)c4)cc23)[C@@H](C)C1` [Example 88, (S,E)-N-(2-chloro-5-(4-(2-methyl-4-(4-oxopent-2-enoyl)piperazin-1-yl)quinazolin-6-yl)pyridin-3-yl)-2,6-difluorobenzenesulfonamide]: the concentration for half-maximal inhibition (IC50) turned out to be 2.6 nM on PI3Kα (Table 2); 11.8 nM on PI3Kδ (Table 2); 219 nM on KRAS^G12C-SOS1; 80.9 nM in test [2]; 333 nM in test [1].

With `CC(=O)/C=C/C(=O)N1CCN(c2ncnc3ccc(-c4cnc(Cl)c(NS(=O)(=O)c5c(F)cc(F)cc5F)c4)cc23)CC1` [Example 89, (E)-N-(2-chloro-5-(4-(4-(4-oxopent-2-enoyl)piperazin-1-yl)quinazolin-6-yl)pyridin-3-yl)-2,4,6-trifluorobenzenesulfonamide], the IC50 at PI3Kα (Table 2) worked out at 2.2 nM; at PI3Kδ (Table 2), 8.6 nM; on KRAS^G12C-SOS1, 404 nM; in test [2], 81.4 nM; in test [1] it was 511 nM.

As to `CNC(=O)/C=C/C(=O)N1CCN(c2ncnc3ccc(-c4cnc(OC)c(NS(=O)(=O)c5ccc(F)cc5F)c4)cc23)CC1` [Example 179, (E)-4-(4-(6-(5-((2,4-difluorophenyl)sulfonamido)-6-methoxy-pyridin-3-yl)quinazolin-4-yl)piperazin-1-yl)-N-methyl-4-oxobut-2-enamide], the IC50 on PI3Kα (Table 4) worked out at 0.37 nM; on KRAS^G12C-SOS1, 147 nM; in test [2] it was 276 nM; in test [1] it was 87.8 nM.

With `CC(=O)/C=C/C(=O)N1CCN(c2ncnc3ccc(-c4cnc(OC(F)(F)F)c(NS(=O)(=O)c5ccc(F)cc5F)c4)nc23)CC1` [Example 226, (E)-2,4-difluoro-N-(5-(4-(4-(4-oxopent-2-enoyl)piperazin-1-yl)pyrido[3,2-d]pyrimidin-6-yl)-2-(trifluoro-methoxy)pyridin-3-yl)benzene-sulfonamide], the IC50 came out at 1.4 nM at PI3Kα (Table 4); 248 nM in test [2]; 357 nM in test [1]; 359 nM in test [3]; 424 nM in test [4].

Take `COc1ncc(-c2ccc3ncnc(N4CCN(C(=O)/C=C/C(C)=O)CC4)c3n2)cc1NS(=O)(=O)c1c(C)cccc1F` [Example 229, (E)-2-fluoro-N-(2-methoxy-5-(4-(4-(4-oxopent-2-enoyl)piperazin-1-yl)pyrido[3,2-d]pyrimidin-6-yl)pyridin-3-yl)-6-methyl-benzene-sulfonamide]: the IC50 on PI3Kα (Table 4) amounted to 3 nM; in test [2], 24 nM; in test [1], 40.8 nM; in test [3], 30 nM; in test [4] it was 31.3 nM.

On to `COc1ncc(-c2ccc3ncnc(C4CCN(C(=O)/C=C/C(C)=O)CC4)c3n2)cc1NS(=O)(=O)c1c(F)cccc1Cl` [Example 235, (E)-2-chloro-6-fluoro-N-(2-methoxy-5-(4-(1-(4-oxopent-2-enoyl)piperidin-4-yl)pyrido[3,2-d]pyrimidin-6-yl)pyridin-3-yl)benzenesulfonamide], for which the IC50 on PI3Kα (Table 4) is 0.3 nM; on PI3Kδ (Table 4), 2.38 nM; at KRAS^G12C-SOS1 it was 113 nM.

As for `COc1ncc(-c2ccc3ncnc(C4=CCN(C(=O)/C=C/C(C)=O)CC4)c3n2)cc1NS(=O)(=O)c1c(F)cc(F)cc1F` [Example 236, (E)-2,4,6-trifluoro-N-(2-methoxy-5-(4-(1-(4-oxopent-2-enoyl)-1,2,3,6-tetrahydropyridin-4-yl)pyrido[3,2-d]pyrimidin-6-yl)pyridin-3-yl)benzenesulfonamide], the IC50 is 1.7 nM on PI3Kα (Table 4); 19.5 nM in test [2]; 34.6 nM in test [1]; 44.7 nM in test [3]; 28.8 nM in test [4].

Turning to `COc1ncc(-c2ccc3ncnc(C4=CCN(C(=O)/C=C/C(C)=O)CC4)c3n2)cc1NS(=O)(=O)c1c(F)cccc1Cl` [Example 241, (E)-2-chloro-6-fluoro-N-(2-methoxy-5-(4-(1-(4-oxopent-2-enoyl)-1,2,3,6-tetrahydropyridin-4-yl)pyrido[3,2-d]pyrimidin-6-yl)pyridin-3-yl)benzenesulfonamide], the values for the IC50 on PI3Kα (Table 4), at PI3Kδ (Table 4) and on KRAS^G12C-SOS1 were 0.27 nM, 2.96 nM and 454 nM, respectively.

Consider `COc1ncc(-c2ccc3ncnc(C4CCN(C(=O)/C=C/C(C)=O)C4)c3c2)cc1NS(=O)(=O)c1ccc(F)cc1F` (stereo not drawn) [Example 247, (E)-2,4-difluoro-N-(2-methoxy-5-(4-(1-(4-oxopent-2-enoyl)pyrrolidin-3-yl)quinazolin-6-yl)pyridin-3-yl)benzenesulfonamide], for which the IC50 is 0.53 nM at PI3Kα (Table 4), 3.33 nM at PI3Kδ (Table 4) and 277 nM on KRAS^G12C-SOS1.
